Columns and labels:
[1] = cn = amount concentration of the nth substance listed, in mol/dm3; details: 101.3 kPa, Liquid, Vibrating tube method
[2] = mn = molality of the nth substance listed, in mol/kg; details: 101 kPa, Liquid, Vibrating tube method

CC(=O)[O-].[K+] [potassium ethanoate] + O
mass density [kg/m3], [1]
Details	c1 = 1	c1 = 1.5	c1 = 2	c1 = 2.5	c1 = 3	c1 = 3.5	c1 = 4
298.15 K	–	1066.61	–	1108.88	1127.48	1148.72	–
303.15 K	1041.9	1064.76	1086.01	1106.89	1125.37	1146.49	1168.58
308.15 K	1039.27	1062.94	1083.09	1103.93	1122.15	1143.14	1165.13
313.15 K	1035.88	1059.39	1079.44	1100.19	1118.3	1139.19	1160.96
318.15 K	1033.57	1057.02	1077.01	1097.66	1115.71	1136.58	1158.26
323.15 K	1030.82	1054.37	1074.47	1095.05	1113.05	1133.87	1155.47

[Br-].[K+] [potassium bromide] + O
mass density [kg/m3], [1]
Details	c1 = 1	c1 = 1.5	c1 = 2	c1 = 2.5	c1 = 3	c1 = 3.5	c1 = 4
298.15 K	–	1119.52	–	1199.54	1239.34	1279.04	–
303.15 K	1078.68	1117.57	1160.04	1197.23	1236.89	1276.29	1320.56
308.15 K	1075.81	1114.62	1156.73	1193.88	1233.52	1272.28	1316.47
313.15 K	1072.09	1110.71	1152.65	1189.67	1229.2	1267.53	1311.63
318.15 K	1066.6	1106.96	1149.76	1186.74	1226.19	1264.46	1308.52
323.15 K	1063.02	1102.44	1144.45	1182.53	1222.18	1260.51	1305.31

[Cl-].[Na+] [sodium chloride] + O
mass density [kg/m3], [1]
Details	c1 = 1	c1 = 1.5	c1 = 2	c1 = 2.5	c1 = 3	c1 = 3.5	c1 = 4
298.15 K	–	1053.3	–	1088.97	1110.22	1124.82	–
303.15 K	1035.38	1055.01	1073.49	1086.83	1107.87	1122.4	1146.3
308.15 K	–	1053.06	1070.4	1083.71	1104.62	1118.95	1142.7
313.15 K	1029.13	1050.21	1066.6	1079.83	1100.67	1114.84	1138.45
318.15 K	1026.75	1046.65	1064.11	1077.28	1098.06	1112.16	1135.7
323.15 K	1023.15	1044.21	1061.5	1074.62	1095.35	1109.38	1132.89

[Cl-].[K+] [potassium chloride] + O
mass density [kg/m3], [1]
Details	c1 = 1	c1 = 1.5	c1 = 2	c1 = 2.5	c1 = 3	c1 = 3.5	c1 = 4
298.15 K	–	1059.97	–	1104.2	1124.93	1145.56	–
303.15 K	1041.13	1058.12	1080.38	1102.19	1122.78	1143.35	1166.67
308.15 K	1038.43	1055.31	1077.43	1099.06	1119.56	1140.06	1163.34
313.15 K	1035.01	1051.75	1073.77	1095.37	1115.79	1136.18	1159.35
318.15 K	1032.69	1049.38	1071.35	1092.9	1113.28	1133.63	1156.76
323.15 K	1030.24	1047.03	1068.81	1090.34	1110.71	1131.02	1154.1

O=S(=O)(O)CCCNC(CO)(CO)CO [3-[tris(hydroxymethyl)methylamino]-1-propanesulfonic acid] + O
mass density [kg/m3], [2]
Details	m1 = 0.5011	m1 = 0.8957	m1 = 1.224	m1 = 1.793	m1 = 2.213	m1 = 2.423	m1 = 2.803
298.15 K	1046.07	1064.95	1084.21	1117.87	1140.59	1152.07	1170.75
303.15 K	1044.13	1062.96	1082.18	1115.68	1138.38	1149.81	1168.43
310.15 K	1041.22	1059.95	1079.15	1112.62	1135.28	1146.62	1165.22
318.15 K	1037.23	1055.92	1075.09	1108.55	1131.19	1142.49	1161.04
323.15 K	1034.92	1053.59	1072.68	1106.08	1128.7	1139.98	1158.52
328.15 K	1032.67	1051.25	1070.31	1103.67	1126.12	1137.32	1155.87

O=S(=O)(O)CC(O)CNC(CO)(CO)CO (configuration not stated) + O
mass density [kg/m3], [2]
Details	298.15 K	303.15 K	310.15 K	318.15 K	323.15 K	328.15 K
m1 = 0.0629	1003.59	1002.16	999.78	996.62	994.41	992.05
m1 = 0.123	1009.62	1008.14	1005.72	1002.52	1000.3	997.92
m1 = 0.1921	1016.37	1014.86	1012.39	1009.15	1006.89	1004.5
m1 = 0.4659	1041.93	1040.26	1037.6	1034.18	1031.71	1028.8
m1 = 0.7644	1069.04	1066.83	1063.04	1059.95	1056.86	1054.93
